Experimental findings from patent US4925855A, “Imidazole derivatives and antimycotics containing them” (CL Pharma Aktiengesellschaft, priority 1986, dated 1990) are described below.

What all share (format): cell-based
The subject of one data set is Aspergillus fumigatus. The experiment in a line: MIC in serial dilution test, Aspergillus fumigatus. The note with it: 20160 min, pH 6. How it is done:
(§1) The antimycotic activities of the compounds were measured by in vitro determination of the minimum inhibitory concentration (MIC) for yeasts, molds and dermatophytes.
(§2) 6 dermatophytes, 2 yeasts and 4 molds were used for testing with fungi, as follows:
Aspergillus fumigatus (Asp.fu.)
(§3) The minimum inhibitory concentration (MIC) was determined in serial dilution tests in test tubes. The volume of the liquid nutrient medium in each test tube was 4.5 ml.
(§4) The substances were dissolved in DMSO and diluted with sterile distilled water to 10 concentrations (100, 50, 25, 12.5, 6.25, 3.12, 1.56, 0.78, 0.39 and 0.19 μg/ml). 0.5 ml of each of these dilution steps was added to the liquid nutrient medium. Thus, a constant concentration of solvent in all the nutrient media was ensured, irrespective of the active compound concentration.
(§5) A comparison solution which contained only the solvent in appropriate concentration was included when carrying out each of the tests.
(§6) The individual strains were maintained on Sabouraud/beerwort agar slants and, before they were used in a test, they underwent a passage on a modified Sabouraud liquid nutrient medium. The strains were then harvested, washed and converted into a suspension of McFaerland 3 in the case of yeasts and molds and of McFaerland 4-5 in the case of dermatophytes.
(§7) The amount of material inoculated (inoculum) was 100 μl/test tube (inoculated densities: yeasts […] of the liquid nutrient medium was 6.0. After inoculation had taken place the fungi were incubated at 22° C. for 14 days.
(§8) The MIC was then determined. The concentration step at which growth was no longer visible on macroscopic inspection was used for the determination of the MIC. The comparison substance used was 1-(2-(2,4-dichlorophenyl)-2-(2,4-dichlorophenylmethoxy)ethyl)-1H-imidazoleas nitrate (compound A).

For the next data set, the system named is Candida tropicalis. As to the kind of experiment: MIC in serial dilution test, Candida tropicalis. The following applies: 336 h, pH 6, Candida tropicalis, pH 6.0, 22° C., 14 days, read-out: MIC values, C. trop. On the procedure: as §1, §2
Candida tropicalis (C.trop.)
as §3, §4, §5, §6, §7, §8

For another data set, the system named is Microsporum canis. As to the kind of experiment: MIC in serial dilution test, Microsporum canis. The following applies: 336 h, pH 6, Microsporum canis, pH 6.0, 22° C., 14 days, read-out: MIC values, Mi. can. On the procedure: as §1, §2
Microsporum canis (Mi.can.)
as §3, §4, §5, §6, §7, §8

The test system of a further data set is Epidermophyton floccosum. The experiment in a line: MIC in serial dilution test, Epidermophyton floccosum. The following applies: 336 h, pH 6, Epidermophyton floccosum, pH 6.0, 22° C., 14 days, read-out: MIC values, Ep. flo. How it is done: as §1, §2
Epidermophyton floccosum
as §3, §4, §5, §6, §7, §8

A further data set relates to Mucor mucedo minus. The experiment in a line: MIC in serial dilution test, Mucor mucedo minus. The note with it: 336 h, pH 6, Mucor mucedo minus, pH 6.0, 22° C., 14 days, read-out: MIC values, Mu. mu-. On the procedure: as §1, §2
Mucor mucedo minus (Mu.mu^-)
as §3, §4, §5, §6, §7, §8

A further data set has as its system Microsporum gypseum. As to the kind of experiment: MIC in serial dilution test, Microsporum gypseum. The following applies: Nannizzia gypsea, 336 h; Microsporum gypseum; pH 6.0, 22° C., 14 days; read-out: MIC values, Mi. gyp. On the procedure: as §1, §2
Microsporum gypseum (Mi.gyp.)
as §3, §4, §5, §6, §7, §8

The subject of data set [1] is Trichophyton mentagrophytes. As to the kind of experiment: MIC in serial dilution test, Trichophyton mentagrophytes. The note with it: 336 h, pH 6, Trichophyton mentagrophytes, pH 6.0, 22° C., 14 days, read-out: MIC values, Tri. me. On the procedure:
as §1, §2
Trichophyton mentagrophytes
as §3, §4, §5, §6, §7, §8

A further data set deals with Absidia ramosa. As to the kind of experiment: MIC in serial dilution test, Absidia ramosa. The note with it: Lichtheimia ramosa, 336 h, pH 6, Absidia ramosa; pH 6.0, 22° C., 14 days; read-out: MIC values, Abs. ra. How it is done:
as §1, §2
Absidia ramosa (Abs.ra.)
as §3, §4, §5, §6, §7, §8

The test system of another data set is Candida albicans. The experiment in a line: MIC in serial dilution test, Candida albicans. The note with it: 336 h, pH 6.0, 22° C., 14 days, read-out: MIC values, C. alb. On the procedure:
as §1, §2
Candida albicans (C.alb.)
as §3, §4, §5, §6, §7, §8

In the next data set the test system is Mucor mucedo plus. As to the kind of experiment: MIC in serial dilution test, Mucor mucedo plus. The note with it: 336 h, pH 6, Mucor mucedo plus, pH 6.0, 22° C., 14 days, read-out: MIC values, Mu. mu+. On the procedure: as §1, §2
Mucor mucedo plus (Mu.mu^+)
as §3, §4, §5, §6, §7, §8

In another data set the test system is Trichophyton rubrum. The experiment in a line: MIC in serial dilution test, Trichophyton rubrum. The note with it: 336 h, pH 6, Trichophyton rubrum, pH 6.0, 22° C., 14 days, read-out: MIC values, Tri. ru. How it is done: as §1, §2
Trichophyton rubrum (Tri.ru.)
as §3, §4, §5, §6, §7, §8

In another data set the test system is Trichophyton verrucosum. As to the kind of experiment: MIC in serial dilution test, Trichophyton verrucosum. The note with it: 336 h, pH 6, Trichophyton verrucosum, pH 6.0, 22° C., 14 days, read-out: MIC values, Tri. ve. How it is done: as §1, §2
Trichophyton verrucosum (Tri.ve.)
as §3, §4, §5, §6, §7, §8

By MIC is commonly meant the smallest concentration in the dilution series that meets the test's criterion for growth inhibition.

≈ marks a conversion by molar mass, not a printed value.

Regarding `Clc1ccc(SCCNC(Cn2ccnc2)c2ccc(Cl)cc2Cl)cc1` (centres unmarked) [compound 3], the “MIC values, Asp. fu.” value with Aspergillus fumigatus is 6,25 μg/ml.

Consider `Clc1ccc(SCCCNC(Cn2ccnc2)c2cccc3ccccc23)cc1` (centres unmarked) [compound 41], for which the “MIC values, Asp. fu.” value in the data set on Aspergillus fumigatus is listed as 3,12 μg/ml.

Turning to `Clc1ccc(C(Cn2ccnc2)NCCCSc2c(Cl)cccc2Cl)c(Cl)c1` (centres unmarked) [compound 26], the “MIC values, Asp. fu.” value with Aspergillus fumigatus was 12,5 μg/ml.

For `Clc1ccc(SCCCCCNC(Cn2ccnc2)c2ccc(Cl)cc2Cl)cc1` (centres unmarked) [compound 38], the “MIC values, Asp. fu.” value against Aspergillus fumigatus is given as 6,25 μg/ml.

Take `CN(CCCSCc1ccc(Cl)cc1)C(Cn1ccnc1)c1ccc(Cl)cc1Cl` (centres unmarked) [compound 36, 1-(2-(2,4-Dichlorophenyl)-2-(N-methyl-3-(4-chlorobenzylthio)propylamino)ethyl)-1H-imidazole]: in the data set on Aspergillus fumigatus, the “MIC values, Asp. fu.” value is reported as 25,0 μg/ml.

As for `Clc1ccc(C(Cn2ccnc2)NCCCSc2ccc(Br)cc2)c(Cl)c1` (centres unmarked) [compound 23, 1-(2-(2,4-dichlorophenyl)-2-(3-(4-bromophenylthio)propylamino)ethyl)-1H-imidazole], the “MIC values, Asp. fu.” value against Aspergillus fumigatus is 1,56 μg/ml. Also, the MIC in the data set on Candida tropicalis and with Microsporum canis was 1.56 µg/mL (≈ 3.21 µM) in each case.

With `Clc1ccc(C(Cn2ccnc2)NCCCSc2ccccc2)c(Cl)c1` (centres unmarked) [compound 16], the “MIC values, Asp. fu.” value against Aspergillus fumigatus is listed as 3,12 μg/ml.

As for `Clc1ccc(C(Cn2ccnc2)NCCSc2ccc(Br)cc2)c(Cl)c1` (centres unmarked) [compound 4], the “MIC values, Asp. fu.” value with Aspergillus fumigatus was 6,25 μg/ml.

Turning to `Clc1ccc(C(Cn2ccnc2)NCCCSc2ccc(Br)cc2)c(Cl)c1` (centres unmarked) [compound 24], in the data set with Aspergillus fumigatus, the “MIC values, Asp. fu.” value is given as 0,39 μg/ml.

Regarding `Fc1ccc(SCCCNC(Cn2ccnc2)c2ccc(Cl)cc2Cl)cc1` (centres unmarked) [compound 18], the MIC was 3.12 µg/mL (≈ 7.35 µM) with Epidermophyton floccosum; 12.5 µg/mL (≈ 29.5 µM) with Mucor mucedo minus; 3.12 µg/mL (≈ 7.35 µM) with Microsporum gypseum; 6.25 µg/mL (≈ 14.7 µM) in data set [1]; 6.25 µg/mL (≈ 14.7 µM) in the data set on Candida tropicalis; 6.25 µg/mL (≈ 14.7 µM) with Absidia ramosa. The MIC in the data set on Candida albicans turned out to be 12.5 µg/mL (≈ 29.5 µM); in the data set with Mucor mucedo plus, 12.5 µg/mL; in the data set with Trichophyton rubrum it was 0.78 µg/mL (≈ 1.84 µM); with Trichophyton verrucosum, 0.39 µg/mL (≈ 0.919 µM); with Microsporum canis, 6.25 µg/mL (≈ 14.7 µM). The “MIC values, Asp. fu.” value against Aspergillus fumigatus is reported as 12,5 μg/ml.
